Experimental data from PubChem BioAssay AID1845194 (Molecular Pharmacology Branch, DTP, NCI, 2023).

System: 287954-098-R-J1 tumor spheroid viability
Assay: Anticancer human tumor 287954-098-R-J1 patient-derived Ewing sarcoma cell line growth inhibition
Settings: spheroids with HUVEC and MSC; for IC50: curve of first compound; for viability, T/C: stronger effect = lower value
Summary of the method: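 Complex tumor spheroids combined malignant cells with endothelial cells and mesenchymal stem cells. DNA-damaging drugs and DNA repair inhibitors were tested alone and in combination, at half-log dilutions down from clinical Cmax (top 10 microM if Cmax unknown), 0.25% DMSO final.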

[1] = second compound 0.003 µM, first compound 0.0949 µM
[2] = second compound 0.003 µM, first compound 0.3 µM
[3] = second compound 0.003 µM, first compound 0.949 µM
[4] = second compound 0.003 µM, first compound 3 µM
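Note: spheroids exposed to compound for 7 days before viability readout.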
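Throughout, for viability, T/C: luminescent signal taken as surrogate of viable cell content; 100% = DMSO vehicle control viability and lower means growth inhibition.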

Question: O=C(c1cc(Cc2n[nH]c(=O)c3ccccc23)ccc1F)N1CCN(C(=O)C2CC2)CC1 + COc1cc2c(cc1O)CCNC21CSC2c3c(OC(C)=O)c(C)c4c(c3C(COC1=O)N1C(O)C3Cc5cc(C)c(OC)c(O)c5C(C21)N3C)OCO4 was tested. Which IC50 (second compound 30 pM) did it give?
Answer: 9180 nM

Question: And the IC50 (second compound 94.9 pM)?
Answer: 10500 nM

Question: And the IC50 (second compound 0.0003 µM)?
Answer: 1460 nM

Question: What about the IC50 (second compound 0.000949 µM) of the same compound?
Answer: < 94.9 nM

Question: What about the IC50 (second compound 0.003 µM) of the same compound?
Answer: < 94.9 nM

Question: And the viability, T/C (second compound 30 pM, first compound 0.0949 µM)?
Answer: 112%

Question: What about the viability, T/C (second compound 30 pM, first compound 0.3 µM) of the same compound?
Answer: 108%

Question: What about the viability, T/C (second compound 30 pM, first compound 0.949 µM) of the same compound?
Answer: 99.5%

Question: What about the viability, T/C (second compound 30 pM, first compound 3 µM) of the same compound?
Answer: 112%

Question: And the viability, T/C (second compound 30 pM, first compound 9.49 µM)?
Answer: 48.3%

Question: And the viability, T/C (second compound 30 pM, first compound 30 µM)?
Answer: 4.03%

Question: And the viability, T/C (second compound 94.9 pM, first compound 0.0949 µM)?
Answer: 114%

Question: And the viability, T/C (second compound 94.9 pM, first compound 0.3 µM)?
Answer: 114%

Question: What about the viability, T/C (second compound 94.9 pM, first compound 0.949 µM) of the same compound?
Answer: 109%

Question: What about the viability, T/C (second compound 94.9 pM, first compound 3 µM) of the same compound?
Answer: 109%

Question: And the viability, T/C (second compound 94.9 pM, first compound 9.49 µM)?
Answer: 54.4%

Question: And the viability, T/C (second compound 94.9 pM, first compound 30 µM)?
Answer: 2.51%

Question: And the viability, T/C (second compound 0.0003 µM, first compound 0.0949 µM)?
Answer: 98.8%

Question: What about the viability, T/C (second compound 0.0003 µM, first compound 0.3 µM) of the same compound?
Answer: 102%

Question: What about the viability, T/C (second compound 0.0003 µM, first compound 0.949 µM) of the same compound?
Answer: 68%

Question: What about the viability, T/C (second compound 0.0003 µM, first compound 3 µM) of the same compound?
Answer: 18.6%

Question: What about the viability, T/C (second compound 0.0003 µM, first compound 9.49 µM) of the same compound?
Answer: 0.6%

Question: What about the viability, T/C (second compound 0.0003 µM, first compound 30 µM) of the same compound?
Answer: 0.57%

Question: What about the viability, T/C (second compound 0.000949 µM, first compound 0.0949 µM) of the same compound?
Answer: 0.38%

Question: And the viability, T/C (second compound 0.000949 µM, first compound 0.3 µM)?
Answer: 0.39%

Question: And the viability, T/C (second compound 0.000949 µM, first compound 0.949 µM)?
Answer: 0.26%

Question: What about the viability, T/C (second compound 0.000949 µM, first compound 3 µM) of the same compound?
Answer: 0.18%

Question: And the viability, T/C (second compound 0.000949 µM, first compound 9.49 µM)?
Answer: 0.07%

Question: And the viability, T/C (second compound 0.000949 µM, first compound 30 µM)?
Answer: 0.23%

Question: What about the viability, T/C [1] of the same compound?
Answer: 0.32%

Question: And the viability, T/C [2]?
Answer: 0.31%

Question: And the viability, T/C [3]?
Answer: 0.3%

Question: What about the viability, T/C [4] of the same compound?
Answer: 0.29%

Question: And the viability, T/C (second compound 0.003 µM, first compound 9.49 µM)?
Answer: 0.28%

Question: And the viability, T/C (second compound 0.003 µM, first compound 30 µM)?
Answer: 0.35%

Question: For Cn1ncnc1[C@H]1c2n[nH]c(=O)c3cc(F)cc(c23)N[C@@H]1c1ccc(F)cc1 + CC[C@@]1(O)C(=O)OCc2c1cc1n(c2=O)Cc2cc3c(CN(C)C)c(O)ccc3nc2-1, which IC50 (second compound 0.003 µM) is on record?
Answer: 453 nM

Question: What about the IC50 (second compound 0.00949 µM) of the same compound?
Answer: 74.8 nM

Question: What about the IC50 (second compound 0.03 µM) of the same compound?
Answer: < 9.49 nM

Question: And the IC50 (second compound 0.0949 µM)?
Answer: < 9.49 nM

Question: And the IC50 (second compound 0.3 µM)?
Answer: < 9.49 nM

Question: And the viability, T/C (second compound 0.003 µM, first compound 0.00949 µM)?
Answer: 99.9%

Question: And the viability, T/C (second compound 0.003 µM, first compound 0.03 µM)?
Answer: 97.6%

Question: What about the viability, T/C [1] of the same compound?
Answer: 105%

Question: What about the viability, T/C [2] of the same compound?
Answer: 76.4%

Question: What about the viability, T/C [3] of the same compound?
Answer: 2.29%

Question: What about the viability, T/C [4] of the same compound?
Answer: 2.4%

Question: And the viability, T/C (second compound 0.00949 µM, first compound 0.00949 µM)?
Answer: 90.6%

Question: What about the viability, T/C (second compound 0.00949 µM, first compound 0.03 µM) of the same compound?
Answer: 74.2%

Question: And the viability, T/C (second compound 0.00949 µM, first compound 0.0949 µM)?
Answer: 45.6%

Question: What about the viability, T/C (second compound 0.00949 µM, first compound 0.3 µM) of the same compound?
Answer: 2.19%

Question: What about the viability, T/C (second compound 0.00949 µM, first compound 0.949 µM) of the same compound?
Answer: 2.05%

Question: And the viability, T/C (second compound 0.00949 µM, first compound 3 µM)?
Answer: 2.02%

Question: And the viability, T/C (second compound 0.03 µM, first compound 0.00949 µM)?
Answer: 2.23%

Question: What about the viability, T/C (second compound 0.03 µM, first compound 0.03 µM) of the same compound?
Answer: 1.81%

Question: And the viability, T/C (second compound 0.03 µM, first compound 0.0949 µM)?
Answer: 2.46%

Question: And the viability, T/C (second compound 0.03 µM, first compound 0.3 µM)?
Answer: 2.34%

Question: And the viability, T/C (second compound 0.03 µM, first compound 0.949 µM)?
Answer: 1.82%

Question: What about the viability, T/C (second compound 0.03 µM, first compound 3 µM) of the same compound?
Answer: 2.07%

Question: What about the viability, T/C (second compound 0.0949 µM, first compound 0.00949 µM) of the same compound?
Answer: 1.93%

Question: And the viability, T/C (second compound 0.0949 µM, first compound 0.03 µM)?
Answer: 1.99%

Question: And the viability, T/C (second compound 0.0949 µM, first compound 0.0949 µM)?
Answer: 2.15%

Question: And the viability, T/C (second compound 0.0949 µM, first compound 0.3 µM)?
Answer: 1.75%

Question: What about the viability, T/C (second compound 0.0949 µM, first compound 0.949 µM) of the same compound?
Answer: 2.09%

Question: What about the viability, T/C (second compound 0.0949 µM, first compound 3 µM) of the same compound?
Answer: 1.72%

Question: And the viability, T/C (second compound 0.3 µM, first compound 0.00949 µM)?
Answer: 1.85%

Question: What about the viability, T/C (second compound 0.3 µM, first compound 0.03 µM) of the same compound?
Answer: 1.99%

Question: What about the viability, T/C (second compound 0.3 µM, first compound 0.0949 µM) of the same compound?
Answer: 1.97%

Question: What about the viability, T/C (second compound 0.3 µM, first compound 0.3 µM) of the same compound?
Answer: 1.59%

Question: What about the viability, T/C (second compound 0.3 µM, first compound 0.949 µM) of the same compound?
Answer: 1.85%

Question: And the viability, T/C (second compound 0.3 µM, first compound 3 µM)?
Answer: 1.48%
